Data as given in patent publication US9700049B2, “Anthranilamides in combination with fungicides” (BAYER INTELLECTUAL PROPERTY GMBH, priority 2010, dated 2017).

Legend:
[1] = tested on: cotton aphid (Aphis gossypii); assay: Aphis gossypii test; assay type: in vivo; conditions: 500 ppm, applied individually
From the text: The kill rates determined a.re entered into Colby's formula.

[2] = tested on: green peach aphid (Myzus persicae); assay: Myzus persicae test (run-off application); assay type: in vivo; conditions: 500 ppm, applied individually
From the text: Myzus persicae Test (Run-Off Application)

[3] = tested on: green peach aphid (Myzus persicae); assay: Myzus persicae test (spray on infested cabbage leaves); assay type: in vivo; conditions: 100 g/ha, applied individually
[4] = tested on: larvae of the mustard beetle (Phaedon cochleariae); assay: Phaedon cochleariae larvae test; conditions: for pest or weed control at 100 g/ha: Phaedon cochleariae, 120 h, read-out: Kill in % after 5d
[5] = tested on: larvae of the armyworm (Spodoptera frugiperda); assay: Spodoptera frugiperda larvae test; assay type: in vivo; conditions: applied individually; for Kill in % after 2d: 100 g/ha
Experimental: Spodoptera frugiperda Larvae Test
Cabbage leaves (Brassica oleracea) are treated by being sprayed with wits the preparation of active compound of the desired concentration and are populated with larvae of the armyworm (Spodoptera frugiperda) while the leaves are still moist.

Cn1c(=O)c2sc3c(=O)n(C)c(=O)c3sc2c1=O [2,6-DIMETHYL-1H,5H-[1,4]DITHIINO[2,3-C:5,6-C′]DIPYRROLE-1,3,5,7(2H,6H)-TETRONE]
Kill in % after 1d ([1]; after 1 d): 0% | Kill in % after 3 d ([1]; after 3 d): 0% | Kill in % after 1d [2]: 0%

CO/C=C(/C(=O)OC)c1ccccc1Oc1cc(Oc2ccccc2C#N)ncn1 [azoxystrobin]
Kill in % after 1d [3]: 0% | Kill in % after 5d ([4]; 100 g/ha, applied individually): 0%

O=C(Nc1ccccc1-c1ccc(Cl)cc1)c1cccnc1Cl [boscalid]
pest or weed control at 100 g/ha [4]: 0%

CCC1(C(=O)N[C@H](C)c2ccc(Cl)cc2)C(C)C1(Cl)Cl (some centres unmarked) [carpropamid]
pest or weed control at 100 g/ha [4]: 0%

CSC1=N[C@@](C)(c2ccccc2)C(=O)N1Nc1ccccc1 [fenamidone]
pest or weed control at 100 g/ha [4]: 0%

N#Cc1c[nH]cc1-c1cccc2c1OC(F)(F)O2 [fludioxonil]
pest or weed control at 100 g/ha [4]: 0%

O=C(NCc1ncc(C(F)(F)F)cc1Cl)c1c(Cl)cccc1Cl [fluopicolide]
Kill in % after 5d ([4]; 100 g/ha, applied individually): 0%

O=C(NCCc1ncc(C(F)(F)F)cc1Cl)c1ccccc1C(F)(F)F [fluopyram]
Kill in % after 2d ([1]; after 2 d): 0% | Kill in % after 2d ([4]; 100 g/ha, applied individually, after 2 d): 0%

CO/N=C(/C1=NOCCO1)c1ccccc1Oc1ncnc(Oc2ccccc2Cl)c1F [fluoxastrobin]
pest or weed control at 100 g/ha [4]: 0%

O=c1c2cc(F)ccc2nc(-n2cncn2)n1-c1ccc(Cl)cc1Cl [fluquinconazole]
pest or weed control at 100 g/ha [4]: 0%

CC(C)Oc1cccc(NC(=O)c2ccccc2C(F)(F)F)c1 [flutolanil]
Kill in % after 5d [3]: 0% | pest or weed control at 100 g/ha [4]: 0%

C=CCOC(Cn1ccnc1)c1ccc(Cl)cc1Cl (centres unmarked) [imazalil]
Kill in % after 2d [5]: 0% | pest or weed control at 100 g/ha [4]: 0%

CC(C)C1CCC(Cc2ccc(Cl)cc2)C1(O)Cn1cncn1 (centres unmarked) [ipconazole]
Kill in % after 1d [3]: 0% | pest or weed control at 100 g/ha [4]: 0%

N#Cc1ccccc1NC(=O)c1snc(Cl)c1Cl [isotianil]
Kill in % after 5d ([4]; 100 g/ha, applied individually): 0%

COCC(=O)N(c1c(C)cccc1C)[C@H](C)C(=O)OC [mefenoxam]
Kill in % after 1d [3]: 0% | Kill in % after 5d ([4]; 100 g/ha, applied individually): 0%

COCC(=O)N(c1c(C)cccc1C)C(C)C(=O)OC (centres unmarked) [metalaxyl]
pest or weed control at 100 g/ha [4]: 0%

CNC(=O)/C(=N/OC)c1ccccc1Oc1ccccc1 [metominostrobin]
Kill in % after 1d [3]: 0%

O=C(Nc1ccccc1)N(Cc1ccc(Cl)cc1)C1CCCC1 [pencycuron]
pest or weed control at 100 g/ha [4]: 0%

Cc1nn(C)c(F)c1C(=O)Nc1ccccc1C(C)CC(C)C (centres unmarked) [penflufen]
Kill in % after 2d [5]: 0% | Kill in % after 5d ([4]; 100 g/ha, applied individually): 0%

OC(Cc1ccccc1Cl)(Cn1nc[nH]c1=S)C1(Cl)CC1 (centres unmarked) [prothioconazole]
pest or weed control at 100 g/ha [4]: 0%

Cn1cc(C(=O)Nc2ccccc2C2CC2C2CC2)c(C(F)F)n1 (centres unmarked) [sedaxane]
Kill in % after 5d ([4]; 100 g/ha, applied individually): 0%

CC(C)(C)C(O)(CCc1ccc(Cl)cc1)Cn1cncn1 (centres unmarked) [tebuconazole]
Kill in % after 5d [3]: 0% | pest or weed control at 100 g/ha [4]: 0%

CC(C)(C)C(O)C(Oc1ccc(Cl)cc1)n1cncn1 (centres unmarked) [triadimenol]
pest or weed control at 100 g/ha [4]: 0%

O=[n+]1[n-]c(-n2ccnc2)nc2ccc(Cl)cc21 [triazoxide]
pest or weed control at 100 g/ha [4]: 0%

CON=C(C(=O)OC)c1ccccc1CON=C(C)c1cccc(C(F)(F)F)c1 [trifloxystrobin]
pest or weed control at 100 g/ha [4]: 0%

fosetyl-aluminium
Kill in % after 6d ([5]; 500 g/ha, after 6 d): 0%

mancozeb
Kill in % after 1d [3]: 0% | Kill in % after 5d ([4]; 100 g/ha, applied individually): 0%
